Experimental data taken from patent US20090042726A1, “Novel Herbicides” (SYNGENTA LIMITED, priority 2005, published 2009).

System: Monocotyledonous and dicotyledonous test plants
Experiment: Herbicidal action, application pre-emergence (Example B1)
Assay type: in vivo
Design: key: 10=total damage to plant; 0=no damage to plant
Conditions: 1000 g/ha, evaluated after 9 or 13 days; for AGSTE herbicidal action (damage score 0-10): Agrostis-tenius; for AMARE herbicidal action (damage score 0-10): Amaranthus retroflexus; for DIGSA herbicidal action (damage score 0-10): Digitaria sanguinalis; for POATR herbicidal action (damage score 0-10): Poa trivialis; for SETIT herbicidal action (damage score 0-10): Setaria italica
Method: Monocotyledonous and dicotyledonous test plants were sown in sterilised standard soil in seed trays each having 96 cells. After one day (pre-emergence) under controlled conditions in a climatic chamber (cultivation at 23/17° C., day/night; 13 hours light; 50-60% humidity; after application at 24/19° C., day/night), the plants were treated with an aqueous spray solution of 1000 mg/l of the active ingredient used (including 10% DMSO as solvent). The plants were grown on in the climatic chamber until the test was evaluated (10=total damage to plant, 0=no damage to plant) after 9 or 13 days.

Row | SMILES | AGSTE herbicidal action (damage score 0-10) | AMARE herbicidal action (damage score 0-10) | DIGSA herbicidal action (damage score 0-10) | POATR herbicidal action (damage score 0-10) | SETIT herbicidal action (damage score 0-10)
1 | Cn1nc(OC(F)F)c(C[S+]([O-])C2=NOC(C)(C)C2F)c1C(F)(F)F (single isomer, unassigned) [2.29] | 9 | 8 | 0 | 10 | 9
2 | Cn1nc(OCC(F)(F)F)c(CS(=O)(=O)C2=NOC(C)(C)C2F)c1C(F)(F)F (centres unmarked) [2.44] | 0 | 10 | 7 | 10 | 10
3 | Cn1nc(OC(F)F)cc1C[S+]([O-])C1=NOC(C)(C)C1F (mixture of isomers) [6.09] | 10 | 10 | 9 | 9 | –
4 | CC1(C)ON=C(S(=O)(=O)C(F)(F)c2ccccc2OC(F)(F)F)C1F (centres unmarked) [Compound No. 1.12] | 10 | 9 | 9 | 0 | 8
5 | CC(Oc1c(CS(=O)(=O)C2=NOC(C)(C)C2F)c(C(F)(F)F)nn1C)C(F)(F)F (mixture of isomers) [2.37] | 10 | 8 | 9 | 10 | 9
6 | COCCOc1c(CS(=O)(=O)C2=NOC(C)(C)C2F)c(C(F)(F)F)nn1C (centres unmarked) [2.59] | 10 | 10 | 10 | 10 | –
7 | Cn1nc(C(F)(F)F)c(C[S+]([O-])C2=NOC(C)(C)C2Br)c1OCC(F)(F)F (mixture of isomers) [2.02] | 10 | 7 | 10 | 5 | 7
8 | Cn1nnc(Br)c1CS(=O)(=O)C1=NOC(C)(C)C1F (centres unmarked) [11.03] | 10 | 3 | 9 | 10 | –
9 | Cn1nc(C(F)(F)F)cc1CS(=O)(=O)C1=NOC(C)(C)C1F (centres unmarked) [6.04] | 10 | 9 | 9 | 10 | –
10 | C=CCn1cc(CS(=O)(=O)C2=NOC(C)(C)C2F)c(C(F)(F)F)n1 (centres unmarked) [2.53] | 10 | 10 | 9 | 10 | –
11 | Cc1nn(C(C)C)nc1CS(=O)(=O)C1=NOC(C)(C)C1F (centres unmarked) [7.39] | 10 | 8 | 9 | 8 | –
12 | CC(c1c(C(F)(F)F)nn(C)c1OCC(F)(F)F)S(=O)(=O)C1=NOC(C)(C)C1F (mixture of isomers) [Compound No. 2.12] | 10 | 6 | 9 | 10 | 9
13 | Cn1nc(C(F)(F)F)c(CS(=O)(=O)C2=NOC(C)(C)C2F)c1OCC(F)(F)F (centres unmarked) [2.11] | 10 | 10 | 9 | 10 | 4
14 | COc1ncc(CS(=O)(=O)C2=NOC(C)(C)C2F)c(C(F)(F)F)n1 (centres unmarked) [5.03] | 10 | 10 | 8 | 10 | –
15 | Cn1nc(C[S+]([O-])C2=NOC(C)(C)C2F)c(C(F)(F)F)c1C#N (single isomer, unassigned) [4.07] | 10 | 9 | 9 | 10 | –
16 | C#CCn1cc(C[S+]([O-])C2=NOC(C)(C)C2F)c(C(F)(F)F)n1 (mixture of isomers) [2.49] | 10 | 10 | 10 | 10 | –
17 | Cc1nn(C)c(OCC(F)(F)F)c1C[S+]([O-])C1=NOC(C)(C)C1F (single isomer, unassigned) [2.61] | 10 | 6 | 9 | 4 | –
18 | Cn1cc(C(F)(F)F)c(CS(=O)(=O)C2=NOC(C)(C)C2F)n1 (centres unmarked) [4.03, 3-(4-fluoro-5,5-dimethyl-4,5-dihydro-isoxazol-3-ylsulfonylmethyl)-1-methyl-4-trifluoromethyl-1H-pyrazole] | 10 | 8 | 10 | 10 | 7
19 | Cn1nc(C(F)(F)F)c(CS(=O)(=O)C2=NOC(C)(C)C2F)c1F (centres unmarked) [2.56] | 10 | 10 | 10 | 10 | –
20 | Cc1nc(C(F)(F)F)ccc1C[S+]([O-])C1=NOC(C)(C)C1F (mixture of isomers) [3.02] | 10 | 7 | 9 | 10 | 8
